Key:
[1] = target: T1, RXRγ (UniProt P28705); test: RXR binding, competition with tritiated retinoid; details: read-out: RXR Binding gamma
T1 sequence (P28705 1-463): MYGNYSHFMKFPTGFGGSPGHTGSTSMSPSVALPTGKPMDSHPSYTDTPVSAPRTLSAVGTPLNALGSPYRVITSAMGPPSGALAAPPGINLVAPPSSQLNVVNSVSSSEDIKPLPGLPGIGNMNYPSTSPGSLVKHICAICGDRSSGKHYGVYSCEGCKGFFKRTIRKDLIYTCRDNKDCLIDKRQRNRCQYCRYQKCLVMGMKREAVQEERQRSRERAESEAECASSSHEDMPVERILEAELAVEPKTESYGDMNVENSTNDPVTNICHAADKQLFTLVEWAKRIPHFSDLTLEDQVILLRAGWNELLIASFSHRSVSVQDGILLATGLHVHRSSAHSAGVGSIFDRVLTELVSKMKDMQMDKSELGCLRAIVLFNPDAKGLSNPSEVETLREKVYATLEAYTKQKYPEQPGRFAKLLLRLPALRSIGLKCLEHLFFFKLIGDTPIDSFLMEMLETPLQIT
Description: In addition to the cotransfection data, the binding of selected compounds of the present invention to the RAR and RXR receptors was also investigated according to the methodology described in M. F., Boehm, et al., “Synthesis and Structure-Activity Relation-ships of Novel Retinoid X Receptor Selective Retinoids”, 37 J. Med. Chem., 2930 (1994); M. F. Boehm, et al., “Synthesis of High Specific Activity [^3H]-9-cis Retinoic Acid and Its Application for Identifying Retinoids with Unusual Binding Properties”, 37 J. Med. Chem., 408 (1994), and E. A. Allegretto, et al., “Characterization and Comparison of Hormone-Binding and Transactivation Properties of Retinoic Acid and Retinoid X Receptors Expressed in Mammalian Cells and Yeast”, 268 J. Biol. Chem., 22625 (1993), the disclosures of which are herein incorporated by reference.
Non-specific binding was defined as that binding remaining in the presence of 500 nM of the appropriate unlabelled compound. At the end of the incubation period, bound ligand was separated from free. The amount of bound tritiated retinoid was determined by liquid scintillation counting of an aliquot (700 μL) of the supernatant fluid or the hydroxylapatite pellet.
After correcting for non-specific binding, IC50 values were determined. The IC50 value is defined as the concentration of competing ligand needed to reduce specific binding by 50%. The IC50 value was determined graphically from a log-logit plot of the data. The Ki values were determined by application of the Cheng-Prussof equation to the IC50 values, the labeled ligand concentration and the Kd of the labeled ligand.

[2] = Metabolic stability in mouse liver microsomes; assay type: in vitro ADME; details: 20 min incubation, 37° C., NADPH
Procedure: A solution containing 1130 μL of 100 mM sodium phosphate buffer, pH 7.4, 20 μL of a 25 mg/mL CD-1 mouse liver microsomal suspension in 100 mM sodium phosphate buffer, pH 7.4, and 830 μL of a 4 mg/mL NADPH solution in 100 mM sodium phosphate buffer, pH 7.4, was prepared in a glass test tube, mixed on a vortexer, and incubated in a shaking water bath at 37° C. for 3 min. A test compound was dissolved in 10% DMSO/90% methanol to a final concentration of 400 μM, and 20 μL was added to the above solution after the 3 min. incubation. The solution was mixed on a vortexer, and incubated at 37° C. in the shaking water bath. After 0, 5, 10 and 20 min incubation, 75 μL aliquots of the incubation solution were removed in triplicate and each aliquot was added to a 75 μL solution that contained 2 μM of an internal standard in 50% acetonitrile/50% 20 mM ZnSO4 and 20 mM NaOH in water. Samples were mixed on a vortexer, and centrifuged at 10° C. for 25 min at 3000 rpm. The supernatant was separated from the microsomal pellet and analyzed for the test compound by electrospray negative ionization using a Micromass Platform LCZ mass spectrometer equipped with a Shimadzu 10AD VP pump, and Shimadzu 10AD UP autosampler. […] Peak area ratios of the test compound to internal standard at each time point were compared to the 0 min. time point to assess metabolic stability. […]

| Metabolic stability (mouse microsomes): Difference from reference compound at 20 min. [2] [%] | Compound | Ki [1] [nM] |
| --- | --- | --- |
| 29.295 | C/C(=C/C=C(F)/C(C)=C/C(=O)O)c1cc(C(C)(C)C)cc(C(C)(C)C)c1OCC(F)F [Example 1, 7-[3,5-di-tert-butyl-2-(2,2-difluoroethoxy)-phenyl]4-fluoro-3-methyl-octa-2,4,6-trienoic acid] | 21 |
| 18.300 | C/C(=C/C(F)=C/C(C)=C/C(=O)O)c1cc(C(C)(C)C)cc(C(C)(C)C)c1OCC(F)F [Example 2, 7-[3,5-Di-tert-butyl-2-(2,2-difluoroethoxy)-phenyl]-5-fluoro-3-methyl-octa-2,4,6-trienoic acid] | 29 |
|  | CCCCOc1c(\C(C)=C/C=C/C(=C/C(=O)O)C(F)(F)F)cc(C(C)C)cc1C(C)C [Example 3, (2Z,4E,6Z)-7-(2-Butoxy-3,5-diisopropylphenyl)-3-trifluoromethyl-octa-2,4,6-trienoic acid] | 662 |
|  | CCCCOc1c(\C(C)=C/C=C/C(=C\C(=O)O)C(F)(F)F)cc(C(C)C)cc1C(C)C [Example 4, (2E,4E,6Z)-7-(2-Butoxy-3,5-diisopropylphenyl)-3-trifluoromethyl-octa-2,4,6-trienoic acid] | 865 |
|  | CCOc1c(\C(=C/C=C/C(C)=C/C(=O)O)C(F)(F)F)cc(C(C)(C)C)cc1C(C)(C)C [Example 5, (2E,4E,6E)-3-methyl-7-(2-ethoxy-3,5-di-tert-butylphenyl)-8,8,8-trifluoroocta-2,4,6-trienoic acid] | 184 |
